Data from patent publication US11530223B2, “Spiro-lactam NMDA receptor modulators and uses thereof” (Aptinyx Inc., priority 2016, dated 2022).
Like-named read-outs stand apart in the source and are kept apart here.

Columns and labels:
NMDAR2B = target: T1, NMDAR2B (Homo sapiens, UniProt Q13224); assay: [3H]MK-801 binding in NMDAR2B expressing HEK cell membranes; type: biochemical; details: 50 μM glutamate; for EC50: read-out: B: log EC50 (converted); for Emax: read-out: A: % maximal [3H]MK-801 binding relative to 1 mM glycine
T1 construct: expressed in transfected cells; host or cells: HEK cells (membrane extract)
T1 sequence (Q13224 27-1484, species assumed, other chains not shown): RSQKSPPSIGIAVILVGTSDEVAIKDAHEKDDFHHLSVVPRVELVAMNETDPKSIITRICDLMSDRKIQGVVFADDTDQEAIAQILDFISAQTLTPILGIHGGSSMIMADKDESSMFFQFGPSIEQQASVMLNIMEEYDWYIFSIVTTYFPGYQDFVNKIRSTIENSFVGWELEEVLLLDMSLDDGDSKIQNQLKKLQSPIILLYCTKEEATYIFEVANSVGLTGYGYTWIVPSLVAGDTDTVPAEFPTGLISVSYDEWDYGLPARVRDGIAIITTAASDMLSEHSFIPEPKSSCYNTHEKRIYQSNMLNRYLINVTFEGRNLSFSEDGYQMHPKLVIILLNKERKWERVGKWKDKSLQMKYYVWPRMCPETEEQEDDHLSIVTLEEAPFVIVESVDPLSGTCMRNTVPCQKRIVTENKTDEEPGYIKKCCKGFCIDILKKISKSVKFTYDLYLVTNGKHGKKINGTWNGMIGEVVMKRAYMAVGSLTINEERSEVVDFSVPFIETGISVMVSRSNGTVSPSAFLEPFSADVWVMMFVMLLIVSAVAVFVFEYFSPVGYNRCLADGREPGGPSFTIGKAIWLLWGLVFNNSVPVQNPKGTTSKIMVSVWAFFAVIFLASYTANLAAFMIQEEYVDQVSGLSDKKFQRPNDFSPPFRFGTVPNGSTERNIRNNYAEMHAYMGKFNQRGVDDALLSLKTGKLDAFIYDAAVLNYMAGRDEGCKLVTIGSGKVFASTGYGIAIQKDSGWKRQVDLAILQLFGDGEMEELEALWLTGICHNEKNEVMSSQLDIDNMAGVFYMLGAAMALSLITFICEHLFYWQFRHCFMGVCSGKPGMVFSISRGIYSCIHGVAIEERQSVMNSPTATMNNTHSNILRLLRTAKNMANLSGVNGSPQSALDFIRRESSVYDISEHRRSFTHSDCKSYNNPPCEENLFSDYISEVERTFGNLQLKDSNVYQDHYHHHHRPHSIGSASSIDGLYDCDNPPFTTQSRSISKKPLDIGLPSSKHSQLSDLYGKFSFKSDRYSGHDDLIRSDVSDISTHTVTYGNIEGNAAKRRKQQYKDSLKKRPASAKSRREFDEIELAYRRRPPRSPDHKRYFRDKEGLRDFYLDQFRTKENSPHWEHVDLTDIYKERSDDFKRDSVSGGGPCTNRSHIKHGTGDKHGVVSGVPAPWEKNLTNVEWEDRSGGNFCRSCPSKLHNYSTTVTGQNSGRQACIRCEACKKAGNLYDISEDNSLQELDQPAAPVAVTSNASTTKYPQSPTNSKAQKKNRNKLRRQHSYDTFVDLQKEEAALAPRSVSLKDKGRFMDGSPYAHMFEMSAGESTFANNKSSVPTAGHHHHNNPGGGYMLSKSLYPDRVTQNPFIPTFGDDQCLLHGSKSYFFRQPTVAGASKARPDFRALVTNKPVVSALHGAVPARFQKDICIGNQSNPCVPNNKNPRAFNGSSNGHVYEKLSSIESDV
Procedure: (§1) Assays were conducted as described by Moskal et al., “GLYX-13: a monoclonal antibody-derived peptide that acts as an N-methyl-D-aspartate receptor modulator,” Neuropharmacology, 49, 1077-87, 2005. These studies were designed to determine if the test compounds act to facilitate NMDAR activation in NMDAR2A, NMDAR2B, NMDAR2C or NMDAR2D expressing HEK cell membranes as measured by increases in [^3H]MK-801 binding.
(§2) In the assay, 300 μg of NMDAR expressing HEK cell membrane extract protein was preincubated for 15 minutes at 25° C. in the presence of saturating concentrations of glutamate (50 μM) and varying concentrations of test compound (1×10^−15M−1×10^−7M), or 1 mM glycine. Following the addition of 0.3 μCi of [^3H]MK-801 (22.5 Ci/mmol), reactions were again incubated for 15 minutes at 25° C. (nonequilibrium conditions). Bound and free [^3H]MK-801 were separated via rapid filtration using a Brandel apparatus.
(§3) In analyzing the data, the DPM (disintegrations per minute) of [^3H]MK-801 remaining on the filter were measured for each concentration of test compound or for 1 mM glycine. The DPM values for each concentration of a ligand (N=2) were averaged. The baseline value was determined from the best fit curve of the DPM values modeled using the GraphPad program and the log(agonist) vs. response (three parameters) algorithm was then subtracted from all points in the dataset. The % maximal [^3H]MK-801 binding was then calculated relative to that of 1 mM glycine: all baseline subtracted DPM values were divided by the average value for 1 mM glycine. The EC50 and % maximal activity were then obtained from the best fit curve of the % maximal [^3H]MK-801 binding data modelled using the GraphPad program and the log(agonist) vs. response (three parameters) algorithm.
(§4) The tables below summarize the results for the wild type […] NMDAR2A, NMDAR2B, NMDAR2C, and NMDAR2D, and whether the compound is not an agonist (−), is an agonist (+), or is a strong agonist (++), where column A is based on the % maximal [^3H]MK-801 binding relative to 1 mM glycine (−=0; <100%=+; and >100%=++); and column B is based on log EC50 values (0=−; ≥1×10^−9 M (e.g., −8)=+; and <1×10^−9 M (e.g., −10)=++).

[1] = oral pharmacokinetics (plasma, brain, CSF); type: in vivo; details: Sprague Dawley rats, per os 10 mg/kg; for Tmax: normal saline (first four compounds: 5% NMP, 5% Solutol HS, 90% normal saline)
Procedure: Plasma, brain, and CSF samples were analyzed at various time points over a 24 hour period.

NMDAR2D [2] = target: T2, NMDAR2D (Homo sapiens, UniProt O15399); assay: [3H]MK-801 binding in NMDAR2D expressing HEK cell membranes; type: biochemical; parameters: key to B: log EC50: 0=−; ≥1×10^−9 M (e.g., −8)=+; <1×10^−9 M (e.g., −10)=++; details: for A: % maximal [3H]MK-801 binding relative to 1 mM glycine: second part of table (r25-r35), c3, taken as NMDAR2D
T2 construct: expressed in transfected cells; host or cells: HEK cells (membrane extract)
Procedure: as §1, §2, §3, §4

NMDAR2A = target: T3, NMDAR2A (Homo sapiens, UniProt Q12879); assay: [3H]MK-801 binding in NMDAR2A expressing HEK cell membranes; type: biochemical; parameters: key to B: log EC50: 0=−; ≥1×10^−9 M (e.g., −8)=+; <1×10^−9 M (e.g., −10)=++; details: 50 μM glutamate; for EC50: read-out: B: log EC50 (converted)
T3 construct: expressed in transfected cells; host or cells: HEK cells (membrane extract)
T3 sequence (Q12879 23-1464, species assumed, other chains not shown): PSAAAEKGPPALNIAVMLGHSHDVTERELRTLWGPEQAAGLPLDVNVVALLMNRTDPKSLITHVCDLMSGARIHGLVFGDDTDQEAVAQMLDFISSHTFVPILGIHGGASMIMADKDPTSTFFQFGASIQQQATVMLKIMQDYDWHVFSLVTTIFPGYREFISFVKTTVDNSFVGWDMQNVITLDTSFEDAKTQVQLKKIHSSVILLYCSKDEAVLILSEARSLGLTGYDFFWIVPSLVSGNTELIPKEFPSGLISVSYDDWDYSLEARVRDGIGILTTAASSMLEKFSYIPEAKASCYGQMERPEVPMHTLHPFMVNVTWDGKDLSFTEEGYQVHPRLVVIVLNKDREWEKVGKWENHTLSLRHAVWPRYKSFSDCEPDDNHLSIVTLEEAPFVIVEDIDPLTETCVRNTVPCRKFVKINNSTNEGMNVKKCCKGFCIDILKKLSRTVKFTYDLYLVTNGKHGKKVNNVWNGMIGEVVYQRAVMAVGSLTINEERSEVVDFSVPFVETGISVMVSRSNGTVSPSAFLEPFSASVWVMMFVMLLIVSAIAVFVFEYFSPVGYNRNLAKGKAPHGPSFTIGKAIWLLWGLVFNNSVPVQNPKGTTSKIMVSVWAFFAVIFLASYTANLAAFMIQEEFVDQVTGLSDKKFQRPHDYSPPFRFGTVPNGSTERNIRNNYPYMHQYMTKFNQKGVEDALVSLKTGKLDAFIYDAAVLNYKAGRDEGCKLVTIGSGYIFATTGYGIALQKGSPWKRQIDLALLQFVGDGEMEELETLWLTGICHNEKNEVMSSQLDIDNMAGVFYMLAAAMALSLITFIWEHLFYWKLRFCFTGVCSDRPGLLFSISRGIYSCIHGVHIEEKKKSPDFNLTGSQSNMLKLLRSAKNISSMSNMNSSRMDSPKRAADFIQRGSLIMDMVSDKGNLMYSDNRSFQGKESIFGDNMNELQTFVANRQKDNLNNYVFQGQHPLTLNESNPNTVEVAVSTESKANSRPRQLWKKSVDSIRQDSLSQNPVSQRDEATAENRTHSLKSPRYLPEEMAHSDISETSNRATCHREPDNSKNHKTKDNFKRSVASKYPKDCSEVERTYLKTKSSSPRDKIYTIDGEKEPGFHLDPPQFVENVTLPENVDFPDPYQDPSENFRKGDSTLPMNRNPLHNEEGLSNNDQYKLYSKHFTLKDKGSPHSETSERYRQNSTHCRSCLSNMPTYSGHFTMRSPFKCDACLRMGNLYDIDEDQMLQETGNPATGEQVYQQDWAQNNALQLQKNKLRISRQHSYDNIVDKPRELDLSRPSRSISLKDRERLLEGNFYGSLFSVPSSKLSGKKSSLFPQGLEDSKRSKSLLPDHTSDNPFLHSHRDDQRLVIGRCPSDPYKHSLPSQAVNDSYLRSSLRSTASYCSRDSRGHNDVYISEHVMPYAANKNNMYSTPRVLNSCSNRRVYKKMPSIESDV
Procedure: as §1, §2, §3, §4

rats = assay: positive emotional learning (PEL) test, 50-kHz ultrasonic vocalizations; type: in vivo; details: rat, PO, one hour after administration
Procedure: Experiments were conducted as described in Burgdorf et al., “The effect of selective breeding for differential rates of 50-kHz ultrasonic vocalizations on emotional behavior in rats,” Devel. Psychobiol., 51:34-46 (2009). Rat 50-kHz ultrasonic vocalization (hedonic USVs) is a validated model for the study of positive affective state and is best elicited by rough-and-tumble play.
The PEL assay measures the acquisition of positive (hedonic) 50-kHz ultrasonic vocalizations (USVs) to a social stimulus, heterospecific rough and tumble play stimulation. Heterospecific rough-and-tumble play stimulation was administered by the experimenter's right hand. One hour after administration of test compound or vehicle negative control (0.5% sodium carboxymethyl cellulose in 0.9% sterile saline vehicle), animals received 3 min of heterospecific rough-and-tumble play that consisted of alternating 15 sec blocks of heterospecific play and 15 sec of no-stimulation. High frequency ultrasonic vocalizations (USVs) were recorded and analyzed by sonogram with Avasoft SASlab Pro (Germany) as previously described by Burgdorf et al., “Positive emotional learning is regulated in the medial prefrontal cortex by GluN2B-containing NMDA receptors,” Neuroscience, 192:515-523 (2011). Frequency modulated 50-kHz USVs that occurred during each of the no-stimulation periods were quantified to measure PEL. Animals were not habituated to play stimulation before testing. Positive emotional learning was measured during the conditioned stimulus (CS) trials preceding the tickle unconditioned stimulus (UCS) trials. Animals received 15 second trials consisting of 6 CS and 6 UCS trials each (3 min total).
The table below summarizes the findings. As each experiment includes its own vehicle group, an example (typical) vehicle score is shown. Max effect (mean number of 50 kHz USVs per 15 seconds) is reported as ^: <6.0; *: 6.0-7.6; **: 7.7-10; ***:10.1-20

NMDAR2C = target: T4, NMDAR2C (Homo sapiens, UniProt Q14957); assay: [3H]MK-801 binding in NMDAR2C expressing HEK cell membranes; type: biochemical; details: second part of table (r25-r35); c2, taken as NMDAR2C; read-out: B: log EC50 (converted)
T4 construct: expressed in transfected cells; host or cells: HEK cells (membrane extract)
T4 sequence (Q14957 20-1233, species assumed, other chains not shown): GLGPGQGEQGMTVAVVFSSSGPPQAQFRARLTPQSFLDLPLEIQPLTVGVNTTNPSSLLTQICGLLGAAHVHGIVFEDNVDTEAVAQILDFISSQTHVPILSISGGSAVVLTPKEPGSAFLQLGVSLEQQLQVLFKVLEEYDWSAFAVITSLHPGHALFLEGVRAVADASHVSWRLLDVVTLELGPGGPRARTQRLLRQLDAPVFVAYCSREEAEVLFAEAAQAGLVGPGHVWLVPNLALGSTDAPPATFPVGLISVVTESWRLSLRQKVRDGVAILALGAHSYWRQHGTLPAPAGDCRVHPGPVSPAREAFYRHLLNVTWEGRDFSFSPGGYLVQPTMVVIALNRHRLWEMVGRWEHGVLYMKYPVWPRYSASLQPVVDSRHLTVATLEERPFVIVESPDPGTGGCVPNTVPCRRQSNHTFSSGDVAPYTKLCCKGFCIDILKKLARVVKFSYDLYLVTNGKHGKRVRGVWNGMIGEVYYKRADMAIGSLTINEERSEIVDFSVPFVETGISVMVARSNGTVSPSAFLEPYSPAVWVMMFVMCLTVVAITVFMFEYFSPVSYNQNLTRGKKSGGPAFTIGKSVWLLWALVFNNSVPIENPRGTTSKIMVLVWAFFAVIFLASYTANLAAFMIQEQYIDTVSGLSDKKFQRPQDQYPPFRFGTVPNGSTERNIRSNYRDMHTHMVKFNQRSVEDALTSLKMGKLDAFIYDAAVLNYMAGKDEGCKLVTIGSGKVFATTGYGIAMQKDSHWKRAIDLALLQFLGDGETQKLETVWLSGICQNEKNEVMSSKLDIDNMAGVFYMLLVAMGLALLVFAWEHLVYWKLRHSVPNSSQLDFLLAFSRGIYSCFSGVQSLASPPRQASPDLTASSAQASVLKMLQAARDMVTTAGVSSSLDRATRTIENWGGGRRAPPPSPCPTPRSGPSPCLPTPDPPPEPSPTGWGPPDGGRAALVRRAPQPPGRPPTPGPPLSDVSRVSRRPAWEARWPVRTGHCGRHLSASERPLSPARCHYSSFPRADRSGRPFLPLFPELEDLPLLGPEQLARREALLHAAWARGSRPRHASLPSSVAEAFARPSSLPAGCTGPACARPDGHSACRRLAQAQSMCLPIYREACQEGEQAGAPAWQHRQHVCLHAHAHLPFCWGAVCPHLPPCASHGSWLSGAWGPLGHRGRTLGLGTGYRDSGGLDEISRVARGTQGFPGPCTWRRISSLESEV
Procedure: as §1, §2
as §3, with “algorithm. […]” for “algorithm.”

IV pharmacokinetics = type: in vivo; details: Sprague Dawley rats; for C0: normal saline (first four compounds: 5% NMP, 5% Solutol HS, 90% normal saline); for Vd: read-out: Vss
Procedure: Sprague Dawley rats were dosed intravenously using a normal saline formulation containing 2 mg/kg of the compounds identified in the below table (except for the first four compounds that were delivered in 5% NMP, 5% Solutol® HS and 90% normal saline formulation). The table below summarizes the results of the IV pharmacokinetics.

NMDAR2D [3] = target: T5, NMDAR2D (Homo sapiens, UniProt O15399+Q05586); assay: [3H]MK-801 binding in NMDAR2D expressing HEK cell membranes; type: biochemical; parameters: key to B: log EC50: 0=−; ≥1×10^−9 M (e.g., −8)=+; <1×10^−9 M (e.g., −10)=++; details: for EC50: second part of table (r25-r35), c4, taken as NMDAR2D, read-out: B: log EC50 (converted); for Emax: second part of table, c3, taken as NMDAR2D, read-out: A: % maximal [3H]MK-801 binding relative to 1 mM glycine
T5 construct: expressed in transfected cells; host or cells: HEK cells (membrane extract)
Procedure: as §1, §2, §3, §4

Sprague Dawley rats = assay: Porsolt forced swim test; type: in vivo; details: 0.1 mg/kg; for % reduction in float time: relative to vehicle group
Procedure: A non-clinical in vivo pharmacology study (Porsolt assay) was performed to measure antidepressant-like effects. A negative control (0.5% sodium carboxymethyl cellulose in 0.9% sterile saline vehicle) and a positive control (fluoxetine) are shown for comparison against test compound. The study allowed for the evaluation of the effects of each compound on the Porsolt forced swim test as assessed by the rats' response (reduced floating time) during a 5-minute swimming test.
Male 2-3 month old Sprague Dawley rats were used (Harlan, Indianapolis, Ind.). Rats were housed in Lucite cages with aspen wood chip bedding, maintained on a 12:12 light:dark cycle (lights on at 5 AM), and given ad libitum access to Purina lab chow (USA) and tap water throughout the study.
The Porsolt forced swim test adapted for use in rats was performed as described by Burgdorf et al., (The long-lasting antidepressant effects of rapastinel (GLYX-13) are associated with a metaplasticity process in the medial prefrontal cortex and hippocampus. Neuroscience 308:202-211, 2015). Animals were placed in a 46 cm tall×20 cm in diameter clear glass tube filled to 30 cm with tap water (23±1° C.) for 15 min on the first day (habituation) and 5 min on the subsequent test day. Positive control fluoxetine was dosed 3 times (24 h, 5 h and 1 h) prior to testing. Animals were tested 1 h or 24 h post-dosing with the test compounds or vehicle. Animals received a 15 min habituation session 1 day before the 5 min test. A subset of compounds tested at 1 h post-dosing were retested at 1 wk post-dosing in the same sets of animals. Water was changed after every other animal. Animals were videotaped, and floating time as defined as the minimal amount of effort required to keep the animals head above water was scored offline by a blinded experimenter with high inter-rater reliability (Pearson's r>0.9).
Each compound tested at dose level shown. Significance vs. vehicle group for each experiment is marked. […] A compound marked “No” was not statistically significant from vehicle. Data was averaged for test compound and vehicle groups (N approximately 8 per group) and the percent reduction in floating for group treated with test compound relative to group treated with vehicle is shown.

[4] = Sprague Dawley, rat, plasma, po, 10 mg/kg
[5] = Sprague Dawley, rat, plasma, po, 10 mg/kg, plasma, read-out: Cmax
[6] = rat, plasma, po, read-out: Tmax
[7] = Sprague Dawley, rat, in vivo, iv, 2 mg/kg
[8] = Sprague Dawley, rat, in vivo, iv, 2 mg/kg, read-out: C0

| Structure (SMILES) | A: % maximal [3H]MK-801 binding relative to 1 mM glycine (NMDAR2B) | EC50 (NMDAR2B) [nM] | CSF Cmax [1] [ng/mL] | Brain Cmax [1] [ng/mL] | A: % maximal [3H]MK-801 binding relative to 1 mM glycine (NMDAR2D [2]) | A: % maximal [3H]MK-801 binding relative to 1 mM glycine (NMDAR2A) | EC50 (NMDAR2A) [nM] | EC50 (NMDAR2C) [nM] | Vss (IV pharmacokinetics; intravenous 2 mg/kg) [L/kg] | C0 (IV pharmacokinetics; intravenous 2 mg/kg) [ng/mL] | Emax (NMDAR2B) [%] | AUC(0-t) [1, 4] [ng·h/mL] | bioavailability [1, 4] [%] | Cmax [1, 5] [ng/mL] | Tmax [1, 6] [min] | EC50 (NMDAR2D [3]) [nM] | Max Effect (mean number of 50 kHz USVs per 15 seconds) (rats; dose .001-1 mg/kg) | AUC(0-t) (IV pharmacokinetics; [7]) [ng·h/mL] | half-life (IV pharmacokinetics; [7]) [min] | Emax (NMDAR2D [3]) [%] | other results |
| --- | --- | --- | --- | --- | --- | --- | --- | --- | --- | --- | --- | --- | --- | --- | --- | --- | --- | --- | --- | --- | --- |
| CC(C)(C)OC(=O)N1CCCC2(CCNC2=O)C1 (single isomer, unassigned) [RA-1, tert-butyl 1-oxo-2,7-diazaspiro[4.5]decane-7-carboxylate] | + (<100%=+) | < 1 | 102.5 | 203.6 | − (−=0) | + (<100%=+) | ≥ 1 | < 1 | 1.69 | 1247.08 |  |  |  |  |  |  |  |  |  |  | % F [1]: 28%; AUClast [1]: 324.2 ng·h/mL; Tmax [1]: 15 min; Cmax ([1]; plasma): 592 ng/mL; B: log EC50 (NMDAR2D [2]; second part of table, c4, taken as NMDAR2D): −; Max Effect (mean number of 50 kHz USVs per 15 seconds) (rats; dose 0.1 mg/kg): *** (***:10.1-20); AUClast (IV pharmacokinetics; intravenous 2 mg/kg): 234.08 ng·h/mL; T1/2 (IV pharmacokinetics; intravenous 2 mg/kg): 11.4 min |
| CC(C)(C)OC(=O)N1CCCC2(CCNC2=O)C1 (single isomer, unassigned) [RE-1, tert-butyl 1-oxo-2,7-diazaspiro[4.5]decane-7-carboxylate] |  | < 1 | 86.1 | 22 | + (<100%=+) | − (−=0) |  |  | 4.12 | 589.9 | < 100 | 273 | 40 | 495 | 15 | < 1 | *** (***:10.1-20) | 136 | 16.2 |  | B: log EC50 (NMDAR2A): − |
| CC(C)(C)OC(=O)N1CCCC12CCNC2=O (single isomer, unassigned) [RM-1, tert-butyl 6-oxo-1,7-diazaspiro[4.4]nonane-1-carboxylate] | ++ (>100%=++) | < 1 | 1415 | 2763 |  | + (<100%=+) | < 1 | < 1 |  |  |  | 5010 | 75 | 4310 | 15 | < 1 | *** (***:10.1-20) | 1330 | 29.4 | < 100 | clearance (IV pharmacokinetics; [7]): 24.9 mL/min/kg; C0 (IV pharmacokinetics; [8]): 2010 ng/mL; Vd (IV pharmacokinetics; [7]): 0.91 L/kg |
| CC(C)C(=O)N1CCCC12CCNC2=O (stereo not shown) [RZ-405] |  | ≥ 1 | 3157 | 2209 |  | + (<100%=+) | < 1 | < 1 |  |  | > 100 | 29500 | 84 | 10800 | 30 | < 1 |  | 7010 | 243 | < 100 | Significance vs. vehicle (Sprague Dawley rats; 1 h post-dose, floating time in 5 min test): Yes (statistically significant (p<=0.05) from vehicle at dose level shown); % reduction in float time (Sprague Dawley rats; 1 h post-dose): 78.9%; Significance vs. vehicle (Sprague Dawley rats; 24 h post-dose): Yes (statistically significant (p<=0.05) from vehicle at dose level shown); % reduction in float time (Sprague Dawley rats; 24 h post-dose): 42.7%; clearance (IV pharmacokinetics; [7]): 4.74 mL/min/kg; C0 (IV pharmacokinetics; [8]): 3040 ng/mL; Vd (IV pharmacokinetics; [7]): 0.69 L/kg |
